One compound from patent US12121522B2, “Methods of treating cancer with an mTOR inhibitor” (Revolution Medicines, Inc., priority 2022, dated 2024) can be followed below.

Assay [1] deals with MCF7 PIK3CA^E545K breast cancer CDX. Nature of the assay: MCF7 breast cancer xenograft. Type of assay: in vivo, mouse. The text has this: FIGS. 1A-1B show Dose-Dependent Antitumor Effects of Repeated RMC-5552 Weekly Treatment in the MCF7 Xenograft Model of Human Estrogen Receptor Positive Breast Cancer in Athymic Nude Mice. Abbreviations: ANOVA=analysis of variance; IP=intraperitoneal; QW=once weekly. […] Each animal represented as a separate bar. Number of animals per group=12. Numbers indicate number of regressions at respective doses (defined as >10% reduction in tumor volume from starting volume) in each group.
(§1) The antitumor activity of RMC-5552 as a single agent against tumors predicted to be dependent on the mTOR pathway and/or bearing specific PI3K/mTOR pathway-activating mutations (i.e., PIK3CA^mut, phosphatase and tensin homolog [PTEN^LOF], or co-mutation of both and tuberous sclerosis complex [TSC^LOF]) was evaluated in selected CDX and/or PDX models
(§2) Table 1. RMC-5552 was administered IP once weekly at 1, 3, 10, and 30 mg/kg. In the breast cancer MCF7 PIK3CA^[…] model, a higher dose of 50 mg/kg once weekly and an alternate dose regimen of 30 mg/kg every 10 days were also evaluated.

The subject of assay [2] is TOV21G ovarian cancer CDX. Nature of the assay: TOV21G ovarian cancer xenograft. The class given is in vivo, mouse. The method, then:
FIGS. 2A-2D show Antitumor Activity of RMC-5552 in the TOV21G Cell Line-Derived Xenograft Model of Human Ovarian Cancer Following Once-Weekly Administration. Abbreviations: ANOVA=analysis of variance; IP=intraperitoneal; QW=once weekly. […] Each animal represented as a separate bar. Number of animals per group=10, or n=5 in 3 mg/kg dosing arm. Numbers indicate number of regressions at respective doses (defined as >10% reduction in tumor volume from starting volume) in each group. […] FIG. 2D reflects Kaplan-Meier survival analysis of the time for TOV21G tumors to regrow to a tumor volume of 300 mm^3 following treatment cessation. Median time to regrowth in RMC-5552 3 mg/kg arm is 61 days, while 10 mg/kg dose survival time was undefined, extending past 73 days. Dotted horizontal line indicates time to regrowth of 50% of the tumors in a treatment.
as §1, §2

In assay [3] the test system is BXF 2211 TSC1^-/- bladder cancer. As to the kind of experiment: BXF 2211 bladder cancer xenograft. Type of assay: in vivo, mouse. The method, then:
as §1, §2

The test system of another assay is 4EBP3 mRNA expression. Nature of the assay: 4EBP3 mRNA expression in whole blood. The class given is in vivo, human. Conditions: cohorts treated with at least 3.0 mg; sustained over a 6-hour period. The text has this: Whole blood was collected from all subjects in dose escalation at CID1 prior to dosing, and 6 timepoints after EOI. In each sample, 4EBP3 mRNA expression was quantified as a pharmacodynamic indicator of mTORC1 inhibition.

Bounds are passed on as bounds.

For the compound `CO[C@H]1C[C@@H]2CC[C@@H](C)[C@@](O)(O2)C(=O)C(=O)N2CCCC[C@H]2C(=O)O[C@H]([C@H](C)C[C@@H]2CC[C@@H](OC(=O)NCCOCCOCCOCCOCCOCCOCCOCCOCCC(=O)N3CCc4cc(Cn5nc(-c6ccc7oc(N)nc7c6)c6c(N)ncnc65)ccc4C3)[C@H](OC)C2)C[C@@H](O)[C@H](C)/C=C(\C)[C@@H](O)[C@@H](OC)C(=O)[C@H](C)C[C@H](C)/C=C/C=C/C=C/1C` [RMC-5552], the TGI (in general, the reduction of tumour growth relative to the control group) in assay [1] (1 mg/kg IP QW) came out at 64%; in assay [1] (3 mg/kg IP QW) it was 93%; in assay [1] (10 mg/kg IP QW) it was 93%. The tumor regression in assay [1] (dose not printed on this line) turned out to be 15% regression; in assay [2] (3 mg/kg IP QW) it was 34% regression; in assay [2] (10 mg/kg IP QW), 61% regression; in assay [3] (3 mg/kg IP QW) it was 91% regression; in assay [3] (10 mg/kg IP QW), 94% regression. The “median time to regrowth to 300 mm^3 after treatment cessation” value in assay [2] (3 mg/kg QW IP, 4 doses) was determined as 61 days. In addition, the “time to regrowth to 300 mm^3 after treatment cessation (undefined)” value in assay [2] (10 mg/kg QW IP, 4 doses) is listed as greater than 73 days. Moreover, the “4EBP3 mRNA expression in whole blood” value with 4EBP3 mRNA expression is on record as “increased from baseline”.
